Values of other authors in patent publication US5246706A, “Device for administering bimakalim transdermally” (Cygnus Therapeutic Systems, priority 1991, dated 1993).

Legend:
potassium channel = conditions: background statement
[1] = known
[2] = octanol/phosphate buffer, pH 7.4; known

| water solubility [1] | partition coefficient [2] | SMILES | potassium channel activating properties (potassium channel) |
| --- | --- | --- | --- |
|  |  | CC1(C)Oc2ccc(C#N)cc2[C@@H](n2ccccc2=O)[C@@H]1O (single isomer, unassigned) [(-)-trans-3,4-dihydro-4-(1,2-dihydro-2-oxo-1-pyridyl)-3-hydroxy-2,2-dimethyl-2H-1-benzopyran-6-carbonitrile] | exhibits potassium channel activating properties |
| approximately 0.7 mg/ml | 27.0 | CC1(C)C=C(n2ccccc2=O)c2cc(C#N)ccc2O1 [Bimakalim, 4-(1,2-dihydro-2-oxo-1-pyridyl)-2,2-dimethyl-2H-1-benzopyran-6-carbonitrile] | potassium channel activating drug |
